Experimental data from patent US9107889B2, “Compositions comprising an NO donor and a dithiolane and their use for improvement of sexual function” (Encrypta GmbH, priority 2005, dated 2015).

How the values were obtained:
[1] = test system: erectile dysfunction (ED); test: Clinical case reports: erectile function, International Index of Erectile Function (IIEF) score; type: in vivo, human
From the text: ED is clinically assessed by the application of the International Index of Erectile Function (IIEF Scale). The scale consists of 5 items related to erectile function scored from never (1 points) to always (5 points). 21-25 points translate to the absence of ED, 16-20 points relate to a mild ED, 11-15 points relate to a moderate ED and 5-10 points translate to a severe ED.
(§1) A person suffered since 3 months from worsening of erection (reduction of penile tension) and of a slight reduction of libido. Their IIEF count at the examination was 9. All biochemical parameters and hormones were within the normal range. The Doppler sonography of the penile vessels was normal. A challenge test with Silfenadil was positive, thereby excluding an organic pathology of the erectile dysfunction (ED). […] Psychogenic ED was diagnosed after examination. […] Arginine (5 g) and 600 mg α-lipoic acid were taken orally 30 minutes prior intercourse. After therapy, erection normalized. The IIEF score improved from 9 to 21 points.
A person complained since a week about insufficient erection. The person started sexual life with regularly intercourse twice a week. 3 months ago, they changed the sexual partner. At the 1st intercourse with the new partner, they experienced overexcitement. Since that time erection worsened, with an IIEF score of 8 points. The biochemical and hormonal values were within the normal range. The diagnosis was psychogenic ED and failure expectation syndrome. […] After change to 4 g arginine and 300 mg α-lipoic acid, the erection improved. The IIEF score improved from 8 to 12 points. In the meantime, the patient changed to chronic intake of 1 g arginine+100 mg α-lipoic acid daily. Occasionally, they take on demand prior intercourse additional 4 g arginine+300 mg α-lipoic acid.
(§2) A patient complained about worsening of erection since 7 years. Sexual intercourse was only possible in selected position. In addition, they suffered from premature ejaculation. Their libido remained intact. The IEFF score at diagnosis was 11. The diagnosis was physical ED and premature ejaculation. 600 mg α-lipoic acid was given as single dose and arginine was given in 4 single doses over the day of 2 g. The erection improved and the intercourse was prolonged from 1-2 minutes to 7 minutes. The IEFF score changed from 11 to 15 points. The 4 single doses have been changed to a single dose of 10 g arginine, taken together with the α-lipoic acid.
A patient (company manager with associated psychological stress) complained about reduced erection and reduced libido since the last 13 years. The morning reactions retained. […] The diagnosis was psychogenic ED and manager syndrome. […] The IIEF score improved from 9 to 24 points. For chronic intake, the daily dose of arginine has been reduced to 2 g, with no change of the α-lipoic acid intake.
(§3) A patient complained about worsening of erection and premature ejaculation. After administration of Silfenadil and Verdenafil, the erection improved; however, the premature ejaculations remained. The diagnosis was psychogenic ED and premature ejaculation. […] However, 200 mg thioctic acid together with 10 g arginine led to an improvement of the IIEF from 8 to 20 points. The duration of intercourse was extended from 1 to 4 minutes.

loss of libido in women = test: Clinical case report: female sexual function (libido, orgasm, IFSF questionnaire); type: in vivo, human; conditions: Case 6; arginine alone 3 g daily increased to 10 g
From the text: Female sexual function can be assessed by the Index of Female Sexual Function (IFSF), a 9-item self-assessment questionnaire. The IFSF is much more comprehensive in respect of sexual function assessment compared to the IIEF. Parameters to be assessed are discomfort during intercourse, degree of vaginal dryness, number of attempts to intercourse, rate and degree of sexual desire, level of satisfaction with sex life and relationship, degree of clitoral sensation and quality of orgasm.
A person experienced loss of libido after they have born their first child. Intercourse was often painful due to diminished […]. […] Since two years, they regularly attend with their spouse marriage counseling. […] The dose was increased weekly by 100 mg. […] The ISFS questionnaire improved (10 points). They reported that their partnership has improved. Marriage counseling has been aborted.

[2] = test system: erectile dysfunction (ED); test: Challenge test with Silfenadil; type: in vivo, human; conditions: Case 1; positive excludes organic pathology of ED
Procedure: as §1

premature ejaculation = test: Clinical case reports: duration of intercourse / premature ejaculation; type: in vivo, human; conditions: Case 5; Silfenadil and Verdenafil
Procedure: as §2, §3
A person was able to perform intercourse only after nasal intake of isoamylnitrite since 5 years. However, intercourse was still unsatisfactory due to unpredictable erections and premature ejaculations. The diagnosis was physical erectile dysfunction and premature ejaculation. […]

[3] = Adverse events in the clinical cases; type: in vivo, human; conditions: Case 1
Procedure: as §1
None of the cases reported adverse events due to the intake of the combination partners. Attributes of cardiovascular dysfunction were not observed. Acutely, oral liquid presentations were applied, chronically both liquid and solid presentations.

[4] = cited from earlier work

## N=C(N)NCCC[C@H](N)C(=O)O [arginine]
[1]; Case 2, psychogenic ED, baseline IIEF 8, oral intake of 4 g arginine alone
  change of IIEF score: did not change
[1]; Case 5, 10 g arginine on top of basic treatment (Silfenadil, Verdenafil)
  effect on ED / premature ejaculation: without any effect
Loss of libido in women
  effect on loss of libido / absent orgasm: did not improve the situation

## CCCc1nn(C)c2c(=O)[nH]c(-c3cc(S(=O)(=O)N4CCN(C)CC4)ccc3OCC)nc12 [Silfenadil]
[1]; Case 5, psychogenic ED and premature ejaculation, Silfenadil and Verdenafil
  erection after administration: improved
[2]
  challenge test result: positive
Premature ejaculation
  premature ejaculations after administration: remained
[3]
  side effect evoked by administration: severe redness of face

## O=C(O)CCCCC1CCSS1 (stereo not drawn) [α-lipoic acid]
[1]; Case 1, psychogenic ED, baseline IIEF 9, oral intake of 600 mg α-lipoic acid alone
  change of IIEF score: did not change
[1]; Case 4, psychogenic ED, single dose 200 mg α-lipoic acid alone
  effect on erection: without any effect
[1]; Case 4, α-lipoic acid alone increased to 600 mg
  effect on erection: did improve the situation
[4]
  pKa: 5.3
